Marks after values point to notes of the source that are not given here. Where a SMILES comes first, the peptide text is derived from it. [ ]: non-standard residue; d: D form. The star is where a group is joined. Fmoc = O=C(OCC1c2ccccc2-c2ccccc21)*
Key:
human GALR2 = target: T1, human GALR2 (Homo sapiens, UniProt O43603); experiment: SRE-luc reporter assay, GALR2;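 further: luciferase activity read in cell lysates after exposure to rising peptide concentrations, EC50 being the agonist level giving half-maximal stimulation from a sigmoidal nonlinear regression fit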; assay type: cell-based; conditions: HEK293-Gqi cells transfected with SRE-luc and human GALR2; 6 h ligand treatment; mean ± S.E. of at least three independent experiments; NM = not measurable; read-out: GALR2 EC50
T1 construct: host or cells: HEK293 cells stably expressing Gαqi
T1 sequence (O43603 1-387): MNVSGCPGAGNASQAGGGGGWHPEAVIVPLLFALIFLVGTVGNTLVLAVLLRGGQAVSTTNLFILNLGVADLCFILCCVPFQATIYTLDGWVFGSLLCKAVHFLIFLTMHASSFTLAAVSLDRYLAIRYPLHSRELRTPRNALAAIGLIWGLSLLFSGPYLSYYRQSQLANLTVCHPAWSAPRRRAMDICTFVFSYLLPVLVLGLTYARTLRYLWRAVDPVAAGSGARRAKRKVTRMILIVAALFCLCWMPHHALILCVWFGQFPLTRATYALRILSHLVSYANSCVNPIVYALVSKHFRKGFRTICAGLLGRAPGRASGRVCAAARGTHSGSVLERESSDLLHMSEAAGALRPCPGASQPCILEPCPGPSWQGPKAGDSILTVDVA
Method: (§4) The generated mutant SPX peptides were incubated with cells expressing GALR2 and GALR3. […] The activities of the receptors were traced using the serum-response element-driven luciferase (SRE-luc) assay system.
(§5) The SRE-luc reporter vector and plasmid containing human GALR1, GALR2, or GALR3 were transfected into HEK293 cells that stably expressed Gqi protein. Cells were then treated with increasing concentrations of mutant peptides, and the receptor activities were determined using the SRE-luc reporter system.
(§6) HEK293 cells stably expressing Gαqi, which mediates Gαi-coupled receptor activation by stimulating Gαq-dependent signaling pathways[59], were maintained in Dulbecco’s modified Eagle’s medium (DMEM) supplemented with 10% FBS, 100 U/ml penicillin G, and 100 μg/ml streptomycin (Invitrogen). Cells were seeded in 48-well plates at a density of 2 × 10^4 cells per well, one day before transfection. A mixture containing 75 ng of the SRE-luc reporter construct, 75 ng of expression plasmid, and 2 μl of Effectene reagent (Qiagen, Chatsworth, CA, USA) was prepared and added to each well according to the manufacturer’s instructions. Cells were then maintained in serum-free DMEM for 16–18 h before treatment with the ligands. Approximately 48 h after transfection, cells were treated with the respective ligands for 6 h. Cells were lysed by the addition of 100 μl lysis buffer. The luciferase activity in 50 μl of cell extract was determined by a luciferase assay system according to the standard protocol for the Synergy 2 Multi-Mode Microplate Reader (BioTek, Winooski, VT, USA).
(§7) For in vitro studies data analysis was performed by nonlinear regression with a sigmoidal dose-response. The agonist concentrations that induced half-maximal stimulation (EC50) or half-maximal inhibition of binding (IC50) were calculated with GraphPad PRISM4 software (GraphPad Software Inc., San Diego, CA, USA). […] All data are presented as mean ± S.E. of at least three independent experiments and a P value of P < 0.05 was considered statistically significant.

human GALR3 = target: T2, human GALR3 (Homo sapiens, UniProt O60755); experiment: SRE-luc reporter assay, GALR3;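 further: luciferase activity read in cell lysates across rising peptide concentrations, EC50 being the agonist concentration giving half-maximal stimulation from a sigmoidal nonlinear fit, Gαqi routing Gi-coupled receptor signaling through Gq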; assay type: cell-based; conditions: HEK293-Gqi cells transfected with SRE-luc and human GALR3; 6 h ligand treatment; mean ± S.E. of at least three independent experiments; NM = not measurable; read-out: GALR3 EC50
T2 construct: host or cells: HEK293 cells stably expressing Gαqi
T2 sequence (O60755 1-368): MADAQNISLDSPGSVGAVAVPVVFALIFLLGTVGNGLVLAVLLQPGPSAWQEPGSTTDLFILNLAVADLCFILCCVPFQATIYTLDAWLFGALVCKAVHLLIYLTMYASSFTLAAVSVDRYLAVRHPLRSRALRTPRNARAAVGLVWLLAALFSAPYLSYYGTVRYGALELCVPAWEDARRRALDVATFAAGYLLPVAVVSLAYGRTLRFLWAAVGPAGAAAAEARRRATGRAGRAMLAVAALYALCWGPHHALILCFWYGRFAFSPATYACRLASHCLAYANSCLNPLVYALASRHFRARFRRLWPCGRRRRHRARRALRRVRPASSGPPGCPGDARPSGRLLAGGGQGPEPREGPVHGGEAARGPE
Method: as §4, §5, §6, §7

[1] = Peptide stability in FBS by residual IP3 production; assay type: in vitro ADME, bovine; conditions: for Half-life activity (h) in FBS: peptide 1 μM in 100% FBS, 37 °C, 0, 3, 6, 12, 24, 48, 72 h, residual activity read as IP3 production ([3H]-inositol) in HEK293 cells expressing GALR2, mean ± S.E., at least three independent experiments
Method: (§1) To investigate the effects of the modifications on proteolytic susceptibility, the functional activity of peptides that were incubated in 100% serum at 37 °C for 0, 3, 6, 12, 24, 48, and 72 h was determined via inositol 1,4,5-triphosphate (IP3) production in GALR2-expressing cells (Fig. 4A–C and Table 3). […] In addition, dAla4 and dGln14 substitutions contribute to longer longevity of the peptide in serum. In an additional experiment, we examined the degradation rates of the Qu mutant, as well as the Qu mutant with an N-terminal modification and/or dAla4 and dGln14 substitutions.
(§2) Figure 4 Stability of SPX mutants in the presence of FBS (A) Qu analogs in FBS (B) and human serum (C). Potency of Qu mutants toward GALR2 (D) and GALR3 (E). For stability of SPX mutants, peptides (1 μM) were incubated in serum for 0, 3, 6, 12, 24, 48, and 72 hrs. The remaining activities of the peptides were determined by measuring IP3 production by HEK293 cells that express GALR2 after the indicated times. IP3 production was expressed as percent change, where 100% indicates IP3 production by WT SPX incubated in FBS or human serum for 0 h. For potency of Qu mutants toward GALR2 and GALR3, the SRE-luc reporter vector and plasmid containing human GALR2 or GALR3 were transfected into HEK293 cells that stably expressed Gqi protein. Cells were then treated with increasing concentrations of mutant peptides, and the receptor activities were determined using the SRE-luc reporter system.
(§3) To evaluate the stability of SPX and its analogs in FBS or human serum, peptides were incubated at an initial concentration of 1 μM in 100% serum at 37 °C for 0, 3, 6, 12, 24, 48, and 72 hours. Residual peptide activity was then assessed by measuring IP3 in HEK293 cells expressing GALR2. For the IP3 assay, cells were seeded in 12-well plates at a density of 2.5 × 10^5 cells per well, and then the next day, cells were transiently transfected with 1 μg/well of plasmid containing GALR2 using the Lipofectamine 2000 (Invitrogen) transfection reagent. The day following transfection, cells were incubated in M199 media containing 1% FBS, 1% L-glutamine, 1% penicillin/streptomycin, and 1 μCi/well of myo-^3H inositol for 20 h. After a 30-min incubation in buffer A (140 mM NaCl, 20 mM Hepes, 4 mM KCl, 8 mM D-glucose, 1 mM MgCl2, 1 mM CaCl2, 1 mg/ml free fatty acid bovine serum albumin (BSA), and 10 mM LiCl at pH 7.2), cells were treated with the agonist for 40 min at 37 °C. Media was removed, and the reactions were terminated by addition of 1 ml of 10 mM cold formic acid to each well. The plates were stored at 4 °C for 30 min, and the extracts were then transferred into 6-ml plastic tubes containing 500 μl AG1–8X anion exchange columns (BIO-RAD). The tubes were gently mixed with a vortexer, and the supernatants were removed by aspiration. Two washes with 1 ml of distilled water were performed followed by two additional washes with 60 mM ammonium formate/5mM sodium tetraborate. Tritiated inositol was separated from the column by elution with 1 ml of 1 M ammonium formate/0.1 M formic acid, and 800 μl from the elution were taken from each tube and transferred into 6-ml scintillation vials. Then, 2 ml of scintillation cocktail solution (Ultima Gold^TM, Perkin Elmer, Waltham MA, USA) was added to each sample. The radioactivity of [^3H]-myo-inositol samples was measured using a TRI carb 3100TR liquid scintillation analyzer (Packard).

[2] = Peptide stability in human serum by residual IP3 production; assay type: in vitro ADME; conditions: peptide 1 μM in 100% human serum, 37 °C, 0, 3, 6, 12, 24, 48, 72 h; residual activity read as IP3 production ([3H]-inositol) in HEK293 cells expressing GALR2; mean ± S.E., at least three independent experiments
Method: as §1, §2, §3

| Compound | EC50 (human GALR2) [nM] | EC50 (human GALR3) [nM] | Initial activity abolished after incubation in FBS ([1]; 12-h incubation in 100% FBS, 37 °C, peptide 1 μM, IP3 production in GALR2-expressing cells) [%] | Half-life activity (h) in FBS [1] | Half-life activity (h) in Human Serum [2] |
| --- | --- | --- | --- | --- | --- |
| CSCC[C@H](NC(=O)[C@H](C)NC(=O)[C@H](CCC(N)=O)NC(=O)[C@@H]1CCCN1C(=O)[C@@H](NC(=O)[C@H](Cc1c[nH]c2ccccc12)NC(=O)[C@@H](N)CC(N)=O)[C@@H](C)O)C(=O)N[C@@H](CC(C)C)C(=O)N[C@@H](Cc1ccc(O)cc1)C(=O)N[C@@H](CC(C)C)C(=O)N[C@@H](CCCCN)C(=O)NCC(=O)N[C@@H](C)C(=O)N[C@@H](CCC(N)=O)C(N)=O [WT, spexin, reference compound] | 45.7 ± 5.9 | 112 ± 14.5 | 80 | 4.1 ± 0.5 h |  |
| CC(C)C[C@H](NC(=O)[C@H](C)NC(=O)[C@H](C)NC(=O)[C@H](CC(N)=O)NC(=O)[C@@H]1CCCN1C(=O)[C@@H](NC(=O)[C@H](Cc1c[nH]c2ccccc12)NC(=O)[C@H](N)CC(N)=O)[C@@H](C)O)C(=O)N[C@@H](Cc1ccc(O)cc1)C(=O)N[C@@H](CC(C)C)C(=O)N[C@@H](Cc1ccccc1)C(=O)NCC(=O)N1CCC[C@H]1C(=O)N[C@@H](CCC(N)=O)C(N)=O [dN1-Qu] (H-[dN]WTPNAALYLFGPQ-NH2) |  |  |  | 4.2 ± 0.1 ^a h | 2.9 ± 0.1 ^a h |
| CSCC[C@H](NC(=O)[C@H](C)NC(=O)[C@H](CCC(N)=O)NC(=O)[C@@H]1CCCN1C(=O)[C@@H](NC(=O)[C@H](Cc1c[nH]c2ccccc12)NC(=O)[C@H](CC(N)=O)NC(=O)OCC1c2ccccc2-c2ccccc21)[C@@H](C)O)C(=O)N[C@@H](CC(C)C)C(=O)N[C@@H](Cc1ccc(O)cc1)C(=O)N[C@@H](CC(C)C)C(=O)N[C@@H](CCCCN)C(=O)NCC(=O)N[C@@H](C)C(=O)N[C@@H](CCC(N)=O)C(N)=O [Fmoc] | 77.6 ± 16 | 126 ± 25.9 |  | 14.2 ± 0.2 ^a h |  |
| CSCC[C@H](NC(=O)[C@H](C)NC(=O)[C@H](CCC(N)=O)NC(=O)[C@@H]1CCCN1C(=O)[C@@H](NC(=O)[C@H](Cc1c[nH]c2ccccc12)NC(=O)[C@H](N)CC(N)=O)[C@@H](C)O)C(=O)N[C@@H](CC(C)C)C(=O)N[C@@H](Cc1ccc(O)cc1)C(=O)N[C@@H](CC(C)C)C(=O)N[C@@H](CCCCN)C(=O)NCC(=O)N[C@@H](C)C(=O)N[C@@H](CCC(N)=O)C(N)=O [dN1] | 21.4 ± 5.54 | 38.9 ± 8 |  | 10.3 ± 0.3 ^a h |  |
| CSCC[C@H](NC(=O)[C@H](C)NC(=O)[C@H](CCC(N)=O)NC(=O)[C@@H](C)NC(=O)[C@@H](NC(=O)[C@H](Cc1c[nH]c2ccccc12)NC(=O)[C@@H](N)CC(N)=O)[C@@H](C)O)C(=O)N[C@@H](CC(C)C)C(=O)N[C@@H](Cc1ccc(O)cc1)C(=O)N[C@@H](CC(C)C)C(=O)N[C@@H](CCCCN)C(=O)NCC(=O)N[C@@H](C)C(=O)N[C@@H](CCC(N)=O)C(N)=O [dA4] (H-NWT[dA]QAMLYLKGAQ-NH2) | 97.7 ± 18.3 | 112 ± 23.1 |  | 8.7 ± 0.4 ^a h |  |
| CSCC[C@H](NC(=O)[C@H](C)NC(=O)[C@H](CCC(N)=O)NC(=O)[C@@H]1CCCN1C(=O)[C@@H](NC(=O)[C@H](Cc1c[nH]c2ccccc12)NC(=O)[C@H](CC(N)=O)NC(C)=O)[C@@H](C)O)C(=O)N[C@@H](CC(C)C)C(=O)N[C@@H](Cc1ccc(O)cc1)C(=O)N[C@@H](CC(C)C)C(=O)N[C@@H](CCCCN)C(=O)NCC(=O)N[C@@H](C)C(=O)N[C@@H](CCC(N)=O)C(N)=O [Ac-N1] | 58.9 ± 11 | 81.3 ± 16.7 |  | 8.7 ± 0.6 ^a h |  |
| CC(C)C[C@H](NC(=O)[C@H](C)NC(=O)[C@H](C)NC(=O)[C@H](CC(N)=O)NC(=O)[C@@H]1CCCN1C(=O)[C@@H](NC(=O)[C@H](Cc1c[nH]c2ccccc12)NC(=O)[C@H](CC(N)=O)NC(=O)OCC1c2ccccc2-c2ccccc21)[C@@H](C)O)C(=O)N[C@@H](Cc1ccc(O)cc1)C(=O)N[C@@H](CC(C)C)C(=O)N[C@@H](Cc1ccccc1)C(=O)NCC(=O)N1CCC[C@H]1C(=O)N[C@@H](CCC(N)=O)C(N)=O [Fmoc-Qu] (Fmoc-NWTPNAALYLFGPQ-NH2) |  |  |  | 6.1 ± 0.2 ^a h | 4.9 ± 0.1 ^a h |
| CSCC[C@H](NC(=O)[C@H](C)NC(=O)[C@H](CCC(N)=O)NC(=O)[C@@H]1CCCN1C(=O)[C@@H](NC(=O)[C@H](Cc1c[nH]c2ccccc12)NC(=O)[C@@H](N)CC(N)=O)[C@@H](C)O)C(=O)N[C@@H](CC(C)C)C(=O)N[C@@H](Cc1ccc(O)cc1)C(=O)N[C@@H](CC(C)C)C(=O)N[C@@H](CCCCN)C(=O)NCC(=O)N[C@@H](C)C(=O)N[C@H](CCC(N)=O)C(N)=O [dQa14] | 77.6 ± 16 | 324 ± 66.6 |  | 5.6 ± 0.2 ^a h |  |
| CC(C)C[C@H](NC(=O)[C@H](C)NC(=O)[C@H](C)NC(=O)[C@H](CC(N)=O)NC(=O)[C@@H]1CCCN1C(=O)[C@@H](NC(=O)[C@H](Cc1c[nH]c2ccccc12)NC(=O)[C@H](CC(N)=O)NC(=O)OCC1c2ccccc2-c2ccccc21)[C@@H](C)O)C(=O)N[C@@H](Cc1ccc(O)cc1)C(=O)N[C@@H](CC(C)C)C(=O)N[C@@H](Cc1ccccc1)C(=O)NCC(=O)N1CCC[C@H]1C(=O)N[C@H](CCC(N)=O)C(N)=O [Fmoc-Qu-dQ14] (Fmoc-NWTPNAALYLFGP[dQ]-NH2) |  |  |  | 8.4 ± 0.3 ^a h | 6.3 ± 0.1 ^a h |
| CSCC[C@H](NC(=O)[C@H](C)NC(=O)[C@H](CCC(N)=O)NC(=O)[C@@H]1CCCN1C(=O)[C@@H](NC(=O)[C@@H](Cc1c[nH]c2ccccc12)NC(=O)[C@@H](N)CC(N)=O)[C@@H](C)O)C(=O)N[C@@H](CC(C)C)C(=O)N[C@@H](Cc1ccc(O)cc1)C(=O)N[C@@H](CC(C)C)C(=O)N[C@@H](CCCCN)C(=O)NCC(=O)N[C@@H](C)C(=O)N[C@@H](CCC(N)=O)C(N)=O [dW2] | 100 ± 18.7 | 138 ± 23.2 |  | 4.5 ± 0.6 h |  |

From paper PMC4764904 (Scientific Reports, 2016)
